US9890171B2, “Aldosterone synthase inhibitors” (Boehringer Ingelheim International GmbH, priority 2014, dated 2018)

Molecular target: aldosterone synthase (CYP11B2) (Macaca fascicularis, UniProt A0A2K5UPL9)
Experiment: aldosterone synthase inhibition assay
Format: biochemical, cynomolgus monkey
Conditions: cynomolgus adrenal gland mitochondria, 2 μM corticosterone, aldosterone quantified by mass spectrometry
Protocol: The aldosterone synthase inhibition assay employs cynomolgus adrenal gland mitochondria as the source of aldosterone synthase (CYP11B2). Mitochondria are prepared from frozen cynomolgus monkey adrenal glands according to Method A described in by J. D. McGarry et al. (Biochem. J., 1983, 214, 21-28), with a final resuspension in the AT buffer described in R. Yamaguchi et al. (Cell Death and Differentiation, 2007, 14, 616-624), frozen as aliquots in liquid nitrogen and stored at −80° C. until use.
Assays are performed in 96-well format in a final volume of 60 μL/well, containing 100 mM potassium phosphate, pH 7.4, 1% (v/v) DMSO, and additionally, 2 μM of corticosterone and […] of mitochondrial protein. Reactions are started by the addition of NADPH to 1 mM and allowed to proceed for 60-90 minutes at 37° C. Reactions are terminated by the addition of […]. One hundred microliters are then transferred to a glass filter plate and centrifuged at 570×g for 5 minutes and the filtrate is collected. Reaction product aldosterone is quantified by mass spectrometry. To determine the assay blank value (0% activity), NADPH is omitted from some reactions.
Dose dependent inhibition is quantified by the inclusion of compound at various concentrations. Maximum activity (100%) is defined by reactions containing NADPH, but without compound. Activities at each concentration are expressed as a percentage of the maximum activity (y-axis) and plotted against concentration of compound (x-axis) and the concentration corresponding to 50% activity (IC50) determined using the XLFit curve-fitting program using a 4-parameter logistic model.

aldosterone synthase (CYP11B2), sequence (A0A2K5UPL9 1-503): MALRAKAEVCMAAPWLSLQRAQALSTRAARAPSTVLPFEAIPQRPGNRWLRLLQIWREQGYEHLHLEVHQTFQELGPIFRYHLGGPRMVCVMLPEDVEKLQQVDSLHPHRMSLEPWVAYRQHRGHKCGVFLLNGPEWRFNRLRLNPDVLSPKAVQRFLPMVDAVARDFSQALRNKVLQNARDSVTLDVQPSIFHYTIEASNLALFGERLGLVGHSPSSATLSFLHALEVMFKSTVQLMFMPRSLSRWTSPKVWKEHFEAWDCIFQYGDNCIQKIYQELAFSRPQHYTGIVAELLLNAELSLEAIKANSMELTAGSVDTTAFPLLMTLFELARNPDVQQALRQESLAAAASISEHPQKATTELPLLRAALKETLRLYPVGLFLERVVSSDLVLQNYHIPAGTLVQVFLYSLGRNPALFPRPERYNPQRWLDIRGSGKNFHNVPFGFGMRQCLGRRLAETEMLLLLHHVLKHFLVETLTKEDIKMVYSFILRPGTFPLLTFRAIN

SMILES | IC50 [nM]
O=C1CCc2cc(-c3cncc4c3COCC4O)ccc2N1 (single isomer, unassigned) [Compound 1, 6-(4-Hydroxy-3,4-dihydro-1H-pyrano[4,3-c]pyridin-8-yl)-3,4-dihydro-1H-quinolin-2-one] | 28.9
O=C1CCc2cc(-c3cncc4c3COCC4O)ccc2N1 (single isomer, unassigned) [Compound 2, 6-(4-Hydroxy-3,4-dihydro-1H-pyrano[4,3-c]pyridin-8-yl)-3,4-dihydro-1H-quinolin-2-one] | 101
OC1COCc2c(-c3ccccc3)cncc21 (single isomer, unassigned) [Compound 3, 8-Phenyl-3,4-dihydro-1H-pyrano[4,3-c]pyridin-4-ol] | 484
N#Cc1ccc(-c2cncc3c2COCC3O)cc1 (single isomer, unassigned) [Compound 4, 4-(4-Hydroxy-3,4-dihydro-1H-pyrano[4,3-c]pyridin-8-yl)-benzonitrile] | 42
OC1COCc2c(-c3ccccc3)cncc21 (single isomer, unassigned) [Compound 5, 8-Phenyl-3,4-dihydro-1H-pyrano[4,3-c]pyridin-4-ol] | 55
N#Cc1ccc(-c2cncc3c2COCC3O)cc1 (single isomer, unassigned) [Compound 6, 4-(4-Hydroxy-3,4-dihydro-1H-pyrano[4,3-c]pyridin-8-yl)-benzonitrile] | 9.8
N#Cc1ccc(-c2cncc3c2COCC3O)cc1Cl (single isomer, unassigned) [Compound 7, 2-Chloro-4-(4-hydroxy-3,4-dihydro-1H-pyrano[4,3-c]pyridin-8-yl)-benzonitrile] | 6.1
CC(C)Oc1nc(-c2cncc3c2COCC3O)cs1 (single isomer, unassigned) [Compound 8, 8-(2-Isopropoxy-thiazol-4-yl)-3,4-dihydro-1H-pyrano[4,3-c]pyridin-4-ol] | 3700
Cc1n[nH]c2ccc(-c3cncc4c3COCC4O)cc12 (single isomer, unassigned) [Compound 10, 8-(3-Methyl-1H-indazol-5-yl)-3,4-dihydro-1H-pyrano[4,3-c]pyridin-4-ol] | 115
Cc1n[nH]c2cc(-c3cncc4c3COCC4O)ccc12 (single isomer, unassigned) [Compound 11, 8-(3-Methyl-1H-indazol-6-yl)-3,4-dihydro-1H-pyrano[4,3-c]pyridin-4-ol] | 690
Cc1n[nH]c2ccc(-c3cncc4c3COCC4O)cc12 (single isomer, unassigned) [Compound 12, 8-(3-Methyl-1H-indazol-5-yl)-3,4-dihydro-1H-pyrano[4,3-c]pyridin-4-ol] | 21
Cc1n[nH]c2cc(-c3cncc4c3COCC4O)ccc12 (single isomer, unassigned) [Compound 13, 8-(3-Methyl-1H-indazol-6-yl)-3,4-dihydro-1H-pyrano[4,3-c]pyridin-4-ol] | 81
Cn1nnc2ccc(-c3cncc4c3COCC4O)cc21 (single isomer, unassigned) [Compound 14, 8-(3-Methyl-3H-benzotriazol-5-yl)-3,4-dihydro-1H-pyrano[4,3-c]pyridin-4-ol] | 15.7
Cn1nc(F)c2ccc(-c3cncc4c3COCC4O)cc21 (single isomer, unassigned) [Compound 15, 8-(3-Fluoro-1-methyl-1H-indazol-6-yl)-3,4-dihydro-1H-pyrano[4,3-c]pyridin-4-ol] | 7.8
Cn1ncc2ccc(-c3cncc4c3COC3(CC3)C4O)cc21 (single isomer, unassigned) [Compound 16, 8-(1-methylindazol-6-yl)spiro[1,4-dihydropyrano[4,3-c]pyridine-3,1′-cyclopropane]-4-ol] | 12.5
Cn1ncc2ccc(-c3cncc4c3COC3(CC3)C4O)cc21 (single isomer, unassigned) [Compound 17, 8-(1-methylindazol-6-yl)spiro[1,4-dihydropyrano[4,3-c]pyridine-3,1′-cyclopropane]-4-ol] | 8
Cn1ncc2cc(F)c(-c3cncc4c3COCC4O)cc21 (single isomer, unassigned) [Compound 18, 8-(5-Fluoro-1-methyl-1H-indazol-6-yl)-3,4-dihydro-1H-pyrano[4,3-c]pyridin-4-ol] | 20.1
Cn1ncc2cc(F)c(-c3cncc4c3COCC4O)cc21 (single isomer, unassigned) [Compound 19, 8-(5-Fluoro-1-methyl-1H-indazol-6-yl)-3,4-dihydro-1H-pyrano[4,3-c]pyridin-4-ol] | 153
OC1COCc2c(-c3ccc4scnc4c3)cncc21 (single isomer, unassigned) [Compound 20, 8-Benzothiazol-5-yl-3,4-dihydro-1H-pyrano[4,3-c]pyridin-4-ol] | 681

SMILES | IC50 [nM]
OC1COCc2c(-c3ccc4cc[nH]c4c3)cncc21 (single isomer, unassigned) [Compound 21, 8-(1H-Indol-6-yl)-3,4-dihydro-1H-pyrano[4,3-c]pyridin-4-ol] | 195
OC1COCc2c(-c3ccc4ncccc4c3)cncc21 (single isomer, unassigned) [Compound 22, 8-Quinolin-6-yl-3,4-dihydro-1H-pyrano[4,3-c]pyridin-4-ol] | 64.1
Cn1ncc2cc(-c3cncc4c3COCC4O)ccc21 (single isomer, unassigned) [Compound 23, 8-(1-Methyl-1H-indazol-5-yl)-3,4-dihydro-1H-pyrano[4,3-c]pyridin-4-ol] | 195
OC1COCc2c(-c3ccc4cn[nH]c4c3)cncc21 (single isomer, unassigned) [Compound 24, 8-(1H-Indazol-6-yl)-3,4-dihydro-1H-pyrano[4,3-c]pyridin-4-ol] | 480
OC1COCc2c(-c3ccc4c(c3)OCCO4)cncc21 (single isomer, unassigned) [Compound 25, 8-(2,3-Dihydro-benzo[1,4]dioxin-6-yl)-3,4-dihydro-1H-pyrano[4,3-c]pyridin-4-ol] | 159
Cc1nn(C)c(C)c1-c1cncc2c1COCC2O (single isomer, unassigned) [Compound 26, 8-(1,3,5-Trimethyl-1H-pyrazol-4-yl)-3,4-dihydro-1H-pyrano[4,3-c]pyridin-4-ol] | 1500
OC1COCc2c(-c3cnc4[nH]ccc4c3)cncc21 (single isomer, unassigned) [Compound 27, 8-(1H-Pyrrolo[2,3-b]pyridin-5-yl)-3,4-dihydro-1H-pyrano[4,3-c]pyridin-4-ol] | 1300
OC1COCc2c(-c3ccc4c(c3)OCCCO4)cncc21 (single isomer, unassigned) [Compound 28, 8-(3,4-Dihydro-2H-benzo[b][1,4]dioxepin-7-yl)-3,4-dihydro-1H-pyrano[4,3-c]pyridin-4-ol] | 333
Cn1ncc2ccc(-c3cncc4c3COCC4O)cc21 (single isomer, unassigned) [Compound 29, 8-(1-Methyl-1H-indazol-6-yl)-3,4-dihydro-1H-pyrano[4,3-c]pyridin-4-ol] | 48.6
OC1COCc2c(-c3ccc4cnccc4c3)cncc21 (single isomer, unassigned) [Compound 30, 8-Isoquinolin-6-yl-3,4-dihydro-1H-pyrano[4,3-c]pyridin-4-ol] | 54
OC1COCc2c(-c3ccc4[nH]ccc4c3)cncc21 (single isomer, unassigned) [Compound 31, 8-(1H-Indol-5-yl)-3,4-dihydro-1H-pyrano[4,3-c]pyridin-4-ol] | 160
Cn1cc(-c2cncc3c2COCC3O)cn1 (single isomer, unassigned) [Compound 32, 8-(1-Methyl-1H-pyrazol-4-yl)-3,4-dihydro-1H-pyrano[4,3-c]pyridin-4-ol] | 2700
OC1COCc2c(-c3ccc4scnc4c3)cncc21 (single isomer, unassigned) [Compound 33, 8-Benzothiazol-5-yl-3,4-dihydro-1H-pyrano[4,3-c]pyridin-4-ol] | 40.5
OC1COCc2c(-c3ccc4cc[nH]c4c3)cncc21 (single isomer, unassigned) [Compound 34, 8-(1H-Indol-6-yl)-3,4-dihydro-1H-pyrano[4,3-c]pyridin-4-ol] | 17.3
OC1COCc2c(-c3ccc4ncccc4c3)cncc21 (single isomer, unassigned) [Compound 35, 8-Quinolin-6-yl-3,4-dihydro-1H-pyrano[4,3-c]pyridin-4-ol] | 9.7
Cn1ncc2cc(-c3cncc4c3COCC4O)ccc21 (single isomer, unassigned) [Compound 36, 8-(1-Methyl-1H-indazol-5-yl)-3,4-dihydro-1H-pyrano[4,3-c]pyridin-4-ol] | 17.5
OC1COCc2c(-c3ccc4cn[nH]c4c3)cncc21 (single isomer, unassigned) [Compound 37, 8-(1H-Indazol-6-yl)-3,4-dihydro-1H-pyrano[4,3-c]pyridin-4-ol] | 94.4
OC1COCc2c(-c3ccc4c(c3)OCCO4)cncc21 (single isomer, unassigned) [Compound 38, 8-(2,3-Dihydro-benzo[1,4]dioxin-6-yl)-3,4-dihydro-1H-pyrano[4,3-c]pyridin-4-ol] | 12
